# Data taken from PubChem BioAssay AID328 (DTP/NCI, 2004).
# Where “and” joins values, the source holds several entries; their conditions need not be identical. Equal entries are not always repeated. Inconclusive results and toxic doses are left out.
# Test system: BDF1 mice, P388 leukemia ip, median survival T/C
# Assay: NCI In Vivo Anticancer Drug Screen. Data for tumor model P388 Leukemia (intraperitoneal) in B6D2F1 (BDF1) mice
# Conditions: endpoint: median survival time, higher = longer survival
# In short: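 Survival ratio, drug arm over vehicle arm, in mice with a transplanted tumour.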
# [1] = dose: 25.0 mg/kg/injection, schedule: Q04DX003 (ip), vehicle: saline with Tween-80
# [2] = dose: 100.0 mg/kg/injection, schedule: Q04DX003 (ip), vehicle: saline with Tween-80
# [3] = dose: 200.0 mg/kg/injection, schedule: Q04DX003 (ip), vehicle: saline with Tween-80
# [4] = dose: 50.0 mg/kg/injection, schedule: Q01DX009 (ip), vehicle: saline with Tween-80
# [5] = dose: 100.0 mg/kg/injection, schedule: Q01DX009 (ip), vehicle: saline with Tween-80
# [6] = dose: 50.0 mg/kg/injection, schedule: Q01DX009 (ip), vehicle: saline
# [7] = dose: 100.0 mg/kg/injection, schedule: Q01DX009 (ip), vehicle: saline
smiles,measurement,setting,value
CC(C)(N)CCC(C)(C)NCCC#N,T/C,"dose: 50.0 mg/kg/injection, schedule: Q01DX009 (ip), vehicle: water",103 % of control
same,T/C,"dose: 100.0 mg/kg/injection, schedule: Q01DX009 (ip), vehicle: water",99 % of control
same,T/C,"dose: 100.0 mg/kg/injection, schedule: Q04DX003 (ip), vehicle: water",110 % of control
same,T/C,"dose: 200.0 mg/kg/injection, schedule: Q01DX009 (ip), vehicle: water",122 % of control
same,T/C,"dose: 200.0 mg/kg/injection, schedule: Q04DX003 (ip), vehicle: water",103 % of control
same,T/C,"dose: 400.0 mg/kg/injection, schedule: Q01DX009 (ip), vehicle: water",114 % of control
same,T/C,"dose: 400.0 mg/kg/injection, schedule: Q04DX003 (ip), vehicle: water",103 % of control
COc1ccc(CCC(C)=O)cc1,T/C,"dose: 100.0 mg/kg/injection, schedule: Q01DX009 (ip), vehicle: Klucel (hydroxypropylcellulose) (HPC)",100 % of control
same,T/C,"dose: 100.0 mg/kg/injection, schedule: Q04DX003 (ip), vehicle: Klucel (hydroxypropylcellulose) (HPC)",95 % of control
same,T/C,"dose: 200.0 mg/kg/injection, schedule: Q04DX003 (ip), vehicle: Klucel (hydroxypropylcellulose) (HPC)",110 % of control
same,T/C,"dose: 400.0 mg/kg/injection, schedule: Q01DX009 (ip), vehicle: Klucel (hydroxypropylcellulose) (HPC)",109 % of control
same,T/C,"dose: 400.0 mg/kg/injection, schedule: Q04DX003 (ip), vehicle: Klucel (hydroxypropylcellulose) (HPC)",105 % of control
Cc1c(N)nc(C(CC(N)=O)NCC(N)C(N)=O)nc1C(=O)NC(C(=O)NC(C)C(O)C(C)C(=O)NC(C(=O)NCCc1nc(-c2nc(C(=O)NCCC[S+](C)C)cs2)cs1)C(C)O)C(OC1OC(CO)C(O)C(O)C1OC1OC(CO)C(O)C(OC(N)=O)C1O)c1cnc[nH]1 (stereo not given),T/C,"dose: 0.5 mg/kg/injection, schedule: Q01DX009 (ip), vehicle: saline",115 % of control
same,T/C,"dose: 1.0 mg/kg/injection, schedule: Q01DX009 (ip), vehicle: saline",115 % of control and 116 % of control
same,T/C,"dose: 2.0 mg/kg/injection, schedule: Q01DX009 (ip), vehicle: saline",120 % of control
same,T/C,"dose: 8.0 mg/kg/injection, schedule: Q01DX009 (ip), vehicle: saline",163 % of control
same,T/C,"dose: 16.0 mg/kg/injection, schedule: Q01DX009 (ip), vehicle: saline",90 % of control and 93 % of control and 118 % of control
same,T/C,"dose: 32.0 mg/kg/injection, schedule: Q01DX009 (ip), vehicle: saline",100 % of control
c1ccc(CCN2CCC3(CC2)COCc2ccccc23)cc1,T/C,"dose: 25.0 mg/kg/injection, schedule: Q01DX001 (ip), vehicle: saline with Tween-80",104 % of control
same,T/C,"dose: 50.0 mg/kg/injection, schedule: Q01DX001 (ip), vehicle: saline with Tween-80",90 % of control
CCN=C(N)Nc1ccc(NC(=O)c2ccc(C(=O)Nc3ccc(NC(N)=NCC)cc3)cc2)cc1,T/C,"dose: 16.5 mg/kg/injection, schedule: Q04DX003 (ip), vehicle: saline with Tween-80",213 % of control
same,T/C,[1],218 % of control
same,T/C,"dose: 37.5 mg/kg/injection, schedule: Q04DX003 (ip), vehicle: saline with Tween-80",109 % of control
same,T/C,[2],168 % of control
same,T/C,[3],86 % of control
CCOC(=O)CCC1(C(=O)OCC)Oc2ccc(Cl)cc2C1=O (stereo not given),T/C,[4],106 % of control
same,T/C,[5],93 % of control
same,T/C,"dose: 200.0 mg/kg/injection, schedule: Q01DX009 (ip), vehicle: saline with Tween-80",108 % of control
CC1(C)N=C(N)N=C(N)N1c1ccc(OCCOc2ccc(S(=O)(=O)F)cc2)c(Cl)c1,T/C,"dose: 12.5 mg/kg/injection, schedule: Q04DX003 (ip), vehicle: saline with Tween-80",158 % of control
same,T/C,"dose: 13.0 mg/kg/injection, schedule: Q04DX003 (ip), vehicle: saline with Tween-80",160 % of control
same,T/C,"dose: 20.0 mg/kg/injection, schedule: Q04DX003 (ip), vehicle: saline with Tween-80",185 % of control
same,T/C,[1],170 % of control
same,T/C,"dose: 30.0 mg/kg/injection, schedule: Q04DX003 (ip), vehicle: saline with Tween-80",185 % of control
same,T/C,"dose: 33.0 mg/kg/injection, schedule: Q01DX009 (ip), vehicle: Klucel (hydroxypropylcellulose) (HPC)",227 % of control
same,T/C,"dose: 50.0 mg/kg/injection, schedule: Q01DX009 (ip), vehicle: Klucel (hydroxypropylcellulose) (HPC)",154 % of control
same,T/C,[4],268 % of control
same,T/C,"dose: 50.0 mg/kg/injection, schedule: Q04DX003 (ip), vehicle: saline with Tween-80",154 % of control and 162 % of control
same,T/C,"dose: 66.0 mg/kg/injection, schedule: Q04DX003 (ip), vehicle: saline with Tween-80",180 % of control
same,T/C,"dose: 75.0 mg/kg/injection, schedule: Q01DX009 (ip), vehicle: Klucel (hydroxypropylcellulose) (HPC)",163 % of control
same,T/C,"dose: 75.0 mg/kg/injection, schedule: Q04DX003 (ip), vehicle: saline with Tween-80",170 % of control
same,T/C,[5],90 % of control
same,T/C,[2],180 % of control
same,T/C,"dose: 150.0 mg/kg/injection, schedule: Q04DX003 (ip), vehicle: saline with Tween-80",232 % of control
same,T/C,[3],108 % of control
Cc1ccc(S(=O)(=O)OCCN(CCOS(=O)(=O)c2ccc(C)cc2)c2ccc(F)cc2)cc1,T/C,"dose: 29.3 mg/kg/injection, schedule: Q01DX009 (ip), vehicle: other",190 % of control
same,T/C,"dose: 44.0 mg/kg/injection, schedule: Q01DX009 (ip), vehicle: other",213 % of control
same,T/C,"dose: 66.0 mg/kg/injection, schedule: Q01DX009 (ip), vehicle: other",245 % of control and 272 % of control
same,T/C,"dose: 66.0 mg/kg/injection, schedule: Q04DX003 (ip), vehicle: saline sonified",105 % of control
same,T/C,"dose: 100.0 mg/kg/injection, schedule: Q04DX003 (ip), vehicle: saline sonified",100 % of control
same,T/C,"dose: 150.0 mg/kg/injection, schedule: Q04DX003 (ip), vehicle: saline sonified",105 % of control
same,T/C,"dose: 200.0 mg/kg/injection, schedule: Q01DX009 (ip), vehicle: other",113 % of control
same,T/C,"dose: 200.0 mg/kg/injection, schedule: Q04DX003 (ip), vehicle: other",154 % of control
same,T/C,"dose: 400.0 mg/kg/injection, schedule: Q04DX003 (ip), vehicle: other",150 % of control
COc1cc(NCc2ccc3nc(N)nc(N)c3c2C)cc(OC)c1OC,T/C,"dose: 5.0 mg/kg/injection, schedule: Q01DX009 (ip), vehicle: sodium bicarbonate",154 % of control
same,T/C,"dose: 10.0 mg/kg/injection, schedule: Q01DX009 (ip), vehicle: sodium bicarbonate",177 % of control
same,T/C,"dose: 12.5 mg/kg/injection, schedule: Q01DX009 (oral), vehicle: sodium bicarbonate",113 % of control
same,T/C,"dose: 20.0 mg/kg/injection, schedule: Q01DX009 (ip), vehicle: saline with Tween-80",255 % of control
same,T/C,"dose: 20.0 mg/kg/injection, schedule: Q01DX009 (ip), vehicle: sodium bicarbonate",227 % of control
same,T/C,"dose: 30.0 mg/kg/injection, schedule: Q01DX009 (ip), vehicle: saline with Tween-80",398 % of control
same,T/C,"dose: 40.0 mg/kg/injection, schedule: Q01DX009 (ip), vehicle: sodium bicarbonate",243 % of control
same,T/C,"dose: 44.0 mg/kg/injection, schedule: Q01DX009 (ip), vehicle: saline with Tween-80",97 % of control
same,T/C,"dose: 50.0 mg/kg/injection, schedule: Q01DX009 (oral), vehicle: sodium bicarbonate",170 % of control
same,T/C,"dose: 67.0 mg/kg/injection, schedule: Q01DX009 (ip), vehicle: saline with Tween-80",95 % of control
same,T/C,"dose: 100.0 mg/kg/injection, schedule: Q01DX009 (oral), vehicle: sodium bicarbonate",89 % of control
COc1cccc2c1C(=O)c1c(O)c3c(c(O)c1C2=O)C[C@@](O)(C(=O)CO)C[C@@H]3OC1CC(NC(=S)Nc2ccc3ccccc3c2)C(O)C(C)O1 (stereo not given in full),T/C,"dose: 1.56 mg/kg/injection, schedule: Q01DX009 (ip), vehicle: saline",95 % of control
same,T/C,"dose: 3.12 mg/kg/injection, schedule: Q01DX009 (ip), vehicle: saline",86 % of control
same,T/C,"dose: 6.25 mg/kg/injection, schedule: Q01DX009 (ip), vehicle: saline",94 % of control
same,T/C,"dose: 25.0 mg/kg/injection, schedule: Q01DX009 (ip), vehicle: saline",99 % of control and 107 % of control
same,T/C,[6],107 % of control
same,T/C,[7],96 % of control
COC(=O)C1(C)CCC(c2ccc(OC)cc2)CC1=O (stereo not given),T/C,[6],86 % of control
same,T/C,[7],100 % of control
same,T/C,"dose: 100.0 mg/kg/injection, schedule: Q04DX003 (ip), vehicle: saline",100 % of control
same,T/C,"dose: 200.0 mg/kg/injection, schedule: Q01DX009 (ip), vehicle: saline",109 % of control
same,T/C,"dose: 200.0 mg/kg/injection, schedule: Q04DX003 (ip), vehicle: saline",103 % of control
